In patent US11440899B2, “Pyrimidine TBK/IKKe inhibitor compounds and uses thereof” (Merck Patent GmbH, priority 2017, dated 2022) one finds IC50 data, which are given here for 21 molecules.

Assay [1] has as its target TBK1 (Homo sapiens (Human), UniProt Q9UHD2). Description: TBK Biochemical Assay. The method, then: Example 106: TBK Biochemical Assay Test compounds were transferred into Labcyte polypropylene 384 well plates ([…]-25) and diluted to 3 mM using DMSO. 3 mM test compounds were dispensed using Labcyte ECHO dose response module into Greiner 784075 plates (columns 3-12 and 13-22, 10 point 1:4) so that high concentration was 30 uM final. 100 uM of a reference compound (1 uM final high concentration). Backfilling was performed if necessary so that all wells contain 1% DMSO final: add 75 nl DMSO/well into columns 1, 2 and 24 using Labcyte Echo. add 75 nl 1.0 mM staurosporine/well into column 23 using Labcyte Echo (10 uM final) add 4.5 ul enzyme/well using multidrop dispenser add 3 ul substrate/well using multidrop dispenser incubate at 25° C. in Heidolph incubator for 90 min. add 7.5 ul 2× stop buffer using multidrop dispenser read on labchip ez reader II using TBK1.job Raw data files were opened in the Caliper LabChip Reviewer program (Version 3.0.265.0 SP2) and peak assignments were adjusted to reflect “substrate first” with the software's post-run analysis options. A spline-fit baseline was applied using the software's analysis algorithm.

For assay [2], the target named is IKKe (Homo sapiens (Human), UniProt Q14164). In words: IKKe Biochemical Assay. The method, then: IKKe Biochemical Assay Test compounds were transferred into Labcyte polypropylene 384 well plates ([…]-25) and diluted to 3 mM using DMSO. 3 mM test compounds were dispensed using Labcyte ECHO dose response module into Greiner 784075 plates (columns 3-12 and 13-22, 10 point 1:4) so that high concentration was 30 uM final. 100 uM of a reference compound (1 uM final high concentration). Backfilling was performed if necessary so that all wells contain 1% DMSO final: add 75 nl DMSO/well into columns 1, 2 and 24 using Labcyte Echo. add 75 nl 1.0 mM staurosporine/well into column 23 using Labcyte Echo (10 uM final) add 4.5 ul enzyme/well using multidrop dispenser add 3 ul substrate/well using multidrop dispenser incubate at 25° C. for 90 min. add 7.5 ul 2× stop buffer read on labchip ez reader II using IKKε. job Raw data files were opened in the Caliper LabChip Reviewer program (Version 3.0.265.0 SP2) and peak assignments were adjusted to reflect “substrate first” with the software's post-run analysis options. A spline-fit baseline was applied using the software's analysis algorithm.
Sequence of IKKe (Q14164 whole entry, species assumed): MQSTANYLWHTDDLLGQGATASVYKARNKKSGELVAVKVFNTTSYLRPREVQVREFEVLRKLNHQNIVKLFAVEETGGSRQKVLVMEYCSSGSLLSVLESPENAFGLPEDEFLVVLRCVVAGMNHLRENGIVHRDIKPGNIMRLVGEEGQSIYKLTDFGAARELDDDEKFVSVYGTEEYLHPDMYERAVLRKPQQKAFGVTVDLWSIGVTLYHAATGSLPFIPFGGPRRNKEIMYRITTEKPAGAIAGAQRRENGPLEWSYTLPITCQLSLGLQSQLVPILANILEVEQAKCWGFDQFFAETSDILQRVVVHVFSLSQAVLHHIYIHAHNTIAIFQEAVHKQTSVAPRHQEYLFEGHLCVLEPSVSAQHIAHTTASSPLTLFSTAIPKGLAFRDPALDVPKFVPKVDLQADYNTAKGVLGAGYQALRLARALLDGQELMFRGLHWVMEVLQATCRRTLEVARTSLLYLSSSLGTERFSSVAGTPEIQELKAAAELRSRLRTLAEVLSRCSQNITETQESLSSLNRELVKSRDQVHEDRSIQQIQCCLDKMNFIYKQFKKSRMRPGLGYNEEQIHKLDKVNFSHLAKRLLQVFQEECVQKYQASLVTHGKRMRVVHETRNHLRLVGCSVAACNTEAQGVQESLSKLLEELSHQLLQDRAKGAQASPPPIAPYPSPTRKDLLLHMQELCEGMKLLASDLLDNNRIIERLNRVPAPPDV

A word on the IC50: it is the point on the concentration scale where inhibition reaches its midpoint.

Counter-ions that a name gives are not always drawn.

Sequence of TBK1 (Q9UHD2 whole entry, species assumed): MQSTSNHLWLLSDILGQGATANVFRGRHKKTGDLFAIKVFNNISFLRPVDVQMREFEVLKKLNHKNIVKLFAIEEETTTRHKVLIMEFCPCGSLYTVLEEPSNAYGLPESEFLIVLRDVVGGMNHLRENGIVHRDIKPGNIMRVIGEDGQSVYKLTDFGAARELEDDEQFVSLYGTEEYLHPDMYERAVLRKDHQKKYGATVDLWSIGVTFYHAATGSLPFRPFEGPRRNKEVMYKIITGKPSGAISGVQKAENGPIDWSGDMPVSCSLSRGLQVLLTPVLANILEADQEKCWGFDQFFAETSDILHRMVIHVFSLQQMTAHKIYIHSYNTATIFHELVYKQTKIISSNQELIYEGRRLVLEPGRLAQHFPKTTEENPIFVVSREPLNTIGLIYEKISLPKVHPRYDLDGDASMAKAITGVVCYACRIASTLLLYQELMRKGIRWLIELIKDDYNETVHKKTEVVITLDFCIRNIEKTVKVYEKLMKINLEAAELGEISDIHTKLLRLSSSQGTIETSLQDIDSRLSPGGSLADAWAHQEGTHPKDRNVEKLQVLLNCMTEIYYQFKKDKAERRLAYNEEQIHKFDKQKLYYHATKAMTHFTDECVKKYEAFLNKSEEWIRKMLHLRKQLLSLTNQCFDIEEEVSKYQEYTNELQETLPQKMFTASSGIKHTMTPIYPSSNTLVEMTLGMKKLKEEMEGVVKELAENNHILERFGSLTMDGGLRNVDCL

As for `COc1nc(Nc2cc(-c3ccc(OC4CCOCC4)c(C#N)c3)ncn2)ccc1C(=O)NC1CCN(C)CC1` [Example 7, 6-([6-[3-cyano-4-(oxan-4-yloxy)phenyl]pyrimidin-4-yl]amino)-2-methoxy-N-(1-methylpiperidin-4-yl)pyridine-3-carboxamide hydrochloride], the IC50 in assay [1] and in assay [2] was < 100 nM each time.

Consider `COc1nc(Nc2cc(-c3ccc(OC4CCOCC4)c(C#N)n3)ncn2)ccc1N1CCN(C)CC1` [Example 22, 6-(6-[[6-methoxy-5-(4-methylpiperazin-1-yl)pyridin-2-yl]amino]pyrimidin-4-yl)-3-(oxan-4-yloxy)pyridine-2-carbonitrile], for which the IC50 in assay [1] and in assay [2] was 100 to 1000 nM throughout.

Regarding `COc1nc(Nc2cc(-c3ccc(OC4CCNCC4(F)F)c(C#N)c3)ncn2)ccc1N1CCN(C)[C@H](C)C1` (stereo partly drawn) [Example 73, 2-[(3,3-difluoropiperidin-4-yl)oxy]-5-[6-({5-[(3R)-3,4-dimethylpiperazin-1-yl]-6-methoxypyridin-2-yl}amino)pyrimidin-4-yl]benzonitrile], the concentration for half-maximal inhibition (IC50) in assay [1] and in assay [2] was < 100 nM throughout.

As to `COc1nc(Nc2cc(-c3ccc(OC4CCN(C(=O)[C@@H](C)O)CC4(F)F)c(C#N)c3)ncn2)ccc1N1CCN(C2COC2)C[C@@H]1C` (stereo partly drawn) [Example 68, 2-([3,3-difluoro-1-[(2R)-2-hydroxypropanoyl]piperidin-4-yl]oxy)-5-[6-([6-methoxy-5-[(2S)-2-methyl-4-(oxetan-3-yl)piperazin-1-yl]pyridin-2-yl]amino)pyrimidin-4-yl]benzonitrile], the IC50 in assay [1] and in assay [2] was < 100 nM in each case.

On to `COc1nc(Nc2cc(-c3ccc(OC4CCOCC4)c(C#N)c3)ncn2)ccc1N1C[C@@H](C)N(C2COC2)[C@@H](C)C1` [Example 16, 5-[6-([5-[(3R,5S)-3,5-dimethyl-4-(oxetan-3-yl)piperazin-1-yl]-6-methoxypyridin-2-yl]amino)pyrimidin-4-yl]-2-(oxan-4-yloxy)benzonitrile], for which the IC50 in assay [1] and in assay [2] was < 100 nM throughout.

`COc1nc(Nc2cc(-c3ccc(OC4CCOCC4)c(C#N)c3)ncn2)ccc1C(=O)N1CC2CC(C1)O2` [Example 3, 5-(6-[[6-methoxy-5-([6-oxa-3-azabicyclo[3.1.1]heptan-3-yl]carbonyl)pyridin-2-yl]amino]pyrimidin-4-yl)-2-(oxan-4-yloxy)benzonitrile]: the IC50 in assay [1] and in assay [2] was < 100 nM in each case.

With `COc1nc(Nc2cc(-c3ccc(O[C@H]4CCN(C(=O)[C@@H](C)O)CC4(F)F)c(C#N)c3)ncn2)ccc1N1CCN(C2COC2)C[C@@H]1C` [Example 99, 2-((S)-3,3-difluoro-1-((R)-2-hydroxypropanoyl)piperidin-4-yloxy)-5-(6-(6-methoxy-5-((S)-2-methyl-4-(oxetan-3-yl)piperazin-1-yl)pyridin-2-ylamino)pyrimidin-4-yl)benzonitrile], the IC50 in assay [1] and in assay [2] was < 100 nM in each case.

As to `COc1nc(Nc2cc(-c3ccc(OC4CCN(C(=O)CO)CC4(F)F)c(C#N)c3)ncn2)ccc1C(=O)N(C)C` (stereo not drawn) [Example 49, 6-[[6-(3-cyano-4-[[3,3-difluoro-1-(2-hydroxyacetyl)piperidin-4-yl]oxy]phenyl)pyrimidin-4-yl]amino]-2-methoxy-N,N-dimethylpyridine-3-carboxamide], the IC50 in assay [1] and in assay [2] was < 100 nM throughout.

Turning to `COc1nc(Nc2cc(-c3cnc(OC4CCOCC4)c(C#N)c3)ncn2)ccc1C(=O)N(C)C` [Example 9, 6-([6-[5-cyano-6-(oxan-4-yloxy)pyridin-3-yl]pyrimidin-4-yl]amino)-2-methoxy-N,N-dimethylpyridine-3-carboxamide hydrochloride], the IC50 in assay [1] and in assay [2] was < 100 nM each time.

Turning to `COc1cc(Nc2cc(-c3ccc(OC4CCOCC4)c(C#N)c3)ncn2)cnc1N1CCN(C)CC1` [Example 34, 5-(6-[[5-methoxy-6-(4-methylpiperazin-1-yl)pyridin-3-yl]amino]pyrimidin-4-yl)-2-(oxan-4-yloxy)benzonitrile], the IC50 in assay [1] and in assay [2] was 100 to 1000 nM each time.

`COc1nc(Nc2cc(-c3ccc(O[C@H]4CCN(C(=O)[C@H](C)O)CC4(F)F)c(C#N)c3)ncn2)ccc1N1CCN(C2COC2)C[C@H]1C` [Example 103, 2-[[(4S)-3,3-difluoro-1-[(2S)-2-hydroxypropanoyl]piperidin-4-yl]oxy]-5-[6-([6-methoxy-5-[(2R)-2-methyl-4-(oxetan-3-yl)piperazin-1-yl]pyridin-2-yl]amino)pyrimidin-4-yl]benzonitrile]: the 50% inhibitory concentration (IC50) in assay [1] and in assay [2] was < 100 nM throughout.

`COc1nc(Nc2cc(-c3ccc(OC4CCN(C(=O)[C@H](C)O)CC4(F)F)c(C#N)c3)ncn2)ccc1N1CCN(C)C[C@@H]1C` (stereo partly drawn) [Example 62, 2-([3,3-difluoro-1-[(2S)-2-hydroxypropanoyl]piperidin-4-yl]oxy)-5-[6-([5-[(2S)-2,4-dimethylpiperazin-1-yl]-6-methoxypyridin-2-yl]amino)pyrimidin-4-yl]benzonitrile hydrochloride]: the IC50 in assay [1] and in assay [2] was < 100 nM throughout.

Take `COc1nc(Nc2cc(-c3ccc(OC4CCOCC4)c(C#N)c3)ncn2)ccc1N1CCN(C2COC2)CC1` [Example 100, 5-[6-({6-methoxy-5-[4-(oxetan-3-yl)piperazin-1-yl]pyridin-2-yl}amino)pyrimidin-4-yl]-2-(oxan-4-yloxy)benzonitrile]: the IC50 in assay [1] and in assay [2] was < 100 nM in each case.

In the case of `COc1nc(Nc2cc(-c3ccc(OC4CCN(C(=O)c5n[nH]c(C)n5)CC4)c(C#N)c3)ncn2)ccc1C(=O)N(C)C` [Example 45, 6-([6-[3-cyano-4-([1-[(5-methyl-1H-1,2,4-triazol-3-yl)carbonyl]piperidin-4-yl]oxy)phenyl]pyrimidin-4-yl]amino)-2-methoxy-N,N-dimethylpyridine-3-carboxamide], the IC50 in assay [1] and in assay [2] was < 100 nM each time.

Regarding `COc1nc(Nc2cc(-c3ccc(OC4CCOCC4)c(C#N)c3)ncn2)ccc1N(C)CCN(C)C` [Example 11, 5-[6-[(5-[[2-(dimethylamino)ethyl](methyl)amino]-6-methoxypyridin-2-yl)amino]pyrimidin-4-yl]-2-(oxan-4-yloxy)benzonitrile], the IC50 in assay [1] and in assay [2] was < 100 nM throughout.

Regarding `COc1nc(Nc2cc(-c3ccc(NC4CCOCC4)c(C#N)c3)ncn2)ccc1C(=O)N(C)C` [Example 87, 6-[(6-[3-cyano-4-[(oxan-4-yl)amino]phenyl]pyrimidin-4-yl)amino]-2-methoxy-N,N-dimethylpyridine-3-carboxamide], the IC50 in assay [1] was < 100 nM; in assay [2], 100 to 1000 nM.

With `COc1nc(Nc2cc(-c3cc(C#N)c(OC4CCOCC4)cn3)ncn2)ccc1C1CCN(C)CC1` [Example 24, 2-(6-[[6-methoxy-5-(1-methylpiperidin-4-yl)pyridin-2-yl]amino]pyrimidin-4-yl)-5-(oxan-4-yloxy)pyridine-4-carbonitrile], the IC50 in assay [1] and in assay [2] was < 100 nM each time.

`COc1nc(Nc2cc(-c3ccc(OC4CCN(C(=O)CO)CC4(F)F)c(C#N)c3)ncn2)ccc1N1CCN(C)CC1` (stereo not drawn) [Example 59, 2-[[3,3-difluoro-1-(2-hydroxyacetyl)piperidin-4-yl]oxy]-5-(6-[[6-methoxy-5-(4-methylpiperazin-1-yl)pyridin-2-yl]amino]pyrimidin-4-yl)benzonitrile]: the IC50 in assay [1] and in assay [2] was < 100 nM each time.

`COc1nc(Nc2cc(-c3ccc(OC4CCN(C(=O)[C@H](C)O)CC4(F)F)c(C#N)c3)ncn2)ccc1N1CCN(C)[C@H](C)C1` (stereo partly drawn) [Example 74, 2-([3,3-difluoro-1-[(2S)-2-hydroxypropanoyl]piperidin-4-yl]oxy)-5-[6-([5-[(3R)-3,4-dimethylpiperazin-1-yl]-6-methoxypyridin-2-yl]amino)pyrimidin-4-yl]benzonitrile hydrochloride]: the IC50 in assay [1] and in assay [2] was < 100 nM each time.

For the molecule `COc1nc(Nc2cc(-c3ccc(OC4CCN(C)CC4)c(C#N)c3)ncn2)ccc1C(=O)N(C)C` [Example 41, 6-[(6-[3-cyano-4-[(1-methylpiperidin-4-yl)oxy]phenyl]pyrimidin-4-yl)amino]-2-methoxy-N,N-dimethylpyridine-3-carboxamide], the IC50 in assay [1] and in assay [2] was 1000 to 5000 nM each time.

Turning to `COc1nc(Nc2cc(-c3ccc(OC4CCOCC4)c(C#N)c3)ncn2)ccc1C1CCNCC1` [Example 17, 5-(6-[[6-methoxy-5-(piperidin-4-yl)pyridin-2-yl]amino]pyrimidin-4-yl)-2-(oxan-4-yloxy)benzonitrile], the IC50 in assay [1] and in assay [2] was < 100 nM in each case.
